Results reported in BindingDB's records for doi:10.1016/j.ejmech.2016.03.070 (China Medical University, 2016).

Tests used:
[1] = Inhibition of full length human ABCB1 expressed in Flp-In-293 cells assessed as potentiation of vincristine-induced cytotoxicity by measuring vincristine IC50 at 10 uM after 72 hrs by SRB assay (Rvb = 823.13 +/- 15.79 nM)
[2] = Inhibition of ABCB1 in human KBVIN cells assessed as potentiation of paclitaxel-induced cytotoxicity by measuring paclitaxel IC50 at 10 uM after 72 hrs by SRB assay (Rvb = 1196.09 +/- 44.8 nM)
[3] = Inhibition of full length human ABCB1 expressed in Flp-In-293 cells assessed as potentiation of doxorubicin-induced cytotoxicity by measuring doxorubicin IC50 at 10 uM after 72 hrs by SRB assay (Rvb = 914.83 +/- 15.85 nM)
[4] = Inhibition of ABCB1 in human KBVIN cells assessed as potentiation of vincristine-induced cytotoxicity by measuring vincristine IC50 at 10 uM after 72 hrs by SRB assay (Rvb = 2867.34 +/- 142.36 nM)
[5] = Inhibition of ABCB1 in human KBVIN cells assessed as potentiation of vincristine-induced cytotoxicity by measuring vincristine IC50 at 8 uM after 72 hrs by SRB assay (Rvb = 2867.34 +/- 142.36 nM)
[6] = Inhibition of ABCB1 in human KBVIN cells assessed as potentiation of paclitaxel-induced cytotoxicity by measuring paclitaxel IC50 at 8 uM after 72 hrs by SRB assay (Rvb = 1196.09 +/- 44.8 nM)
[7] = Inhibition of full length human ABCB1 expressed in Flp-In-293 cells assessed as potentiation of paclitaxel-induced cytotoxicity by measuring paclitaxel IC50 at 10 uM after 72 hrs by SRB assay (Rvb = 644.78 +/- 2.6 nM)
[8] = Inhibition of full length human ABCB1 expressed in Flp-In-293 cells assessed as potentiation of paclitaxel-induced cytotoxicity by measuring paclitaxel IC50 at 8 uM after 72 hrs by SRB assay (Rvb = 644.78 +/- 2.6 nM)
[9] = Inhibition of full length human ABCB1 expressed in Flp-In-293 cells assessed as potentiation of vincristine-induced cytotoxicity by measuring vincristine IC50 at 8 uM after 72 hrs by SRB assay (Rvb = 823.13 +/- 15.79 nM)
[10] = Inhibition of full length human ABCB1 expressed in Flp-In-293 cells assessed as potentiation of doxorubicin-induced cytotoxicity by measuring doxorubicin IC50 at 8 uM after 72 hrs by SRB assay (Rvb = 914.83 +/- 15.85 nM)

For `Cc1cccc(-c2coc3c(c(O)cc4occ(-c5cccc(C)c5)c(=O)c43)c2=O)c1`, the IC50 [1] was 39 nM, the IC50 [2] was 52 nM and the IC50 [3] was 586 nM. For the same compound, the IC50 [4] was 96 nM, the IC50 [5] was 390 nM and the IC50 [6] was 63 nM. For the same compound, the IC50 [7] was 40 nM, the IC50 [8] was 60 nM and the IC50 [9] was 53 nM. For the same compound, the IC50 [10] was 664 nM.
In the case of `COc1ccc(-c2coc3c(c(O)cc4occ(-c5ccc(OC)cc5)c(=O)c43)c2=O)cc1`, the IC50 [1] is reported as 500 nM, the IC50 [3] is reported as 544 nM and the IC50 [7] is reported as 79 nM. The IC50 [8] was 303 nM, the IC50 [9] was 577 nM and the IC50 [10] was 576 nM.
For `COc1ccc(-c2coc3c(c(O)cc4occ(-c5ccc(OC)c(OC)c5)c(=O)c43)c2=O)cc1OC`, the IC50 [1] was 85 nM, the IC50 [3] was 594 nM and the IC50 [7] was 68 nM. The IC50 [8] was 73 nM, the IC50 [9] was 203 nM and the IC50 [10] was 597 nM.
